Assay results as given in PubChem BioAssay (NCI).
Where “and” joins values, the source holds several entries; their conditions need not be identical. Equal values may be shown once.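 48-hour exposure; five concentrations; linearly interpolated endpoints. At the GI50, growth is halved. Definition used: TGI = concentration required for complete inhibition of growth.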

Legend:
Experiment in all cases: inhibition of tumour cell growth, NCI panel, 48 h
SF-539 CNS = system: SF-539 CNS
RPMI-8226 leukemia = system: RPMI-8226 leukemia
NCI-H522 lung = system: NCI-H522 lung
RXF 393 renal = system: RXF 393 renal
SNB-19 CNS = system: SNB-19 CNS
IGROV1 ovarian = system: IGROV1 ovarian
M14 melanoma = system: M14 melanoma
COLO 205 colon = system: COLO 205 colon
SK-MEL-2 melanoma = system: SK-MEL-2 melanoma
LOX IMVI melanoma = system: LOX IMVI melanoma

Compound	TGI (SF-539 CNS)	TGI (RPMI-8226 leukemia)	TGI (NCI-H522 lung)	TGI (RXF 393 renal)	TGI (SNB-19 CNS)	TGI (IGROV1 ovarian)	TGI (M14 melanoma)	TGI (COLO 205 colon) [µM]	TGI (SK-MEL-2 melanoma)	TGI (LOX IMVI melanoma)	GI50 (LOX IMVI melanoma)	GI50 (NCI-H522 lung)	GI50 (RXF 393 renal)	GI50 (SNB-19 CNS)	GI50 (IGROV1 ovarian)	GI50 (M14 melanoma)	GI50 (SK-MEL-2 melanoma)	GI50 (SF-539 CNS) [nM]	GI50 (RPMI-8226 leukemia) [nM]	GI50 (COLO 205 colon) [µM]
COC1OC(C)C(OCc2ccccc2)C(OS(=O)(=O)c2ccc(C)cc2)C1OS(=O)(=O)c1ccc(C)cc1 (centres undefined)	> 100 µM	> 100 µM	> 100 µM	> 100 µM	> 100 µM	> 100 µM	> 100 µM	> 100	> 100 µM											
C#CCC(N)(CO)C(=O)O (centres undefined)	> 100 µM	> 100 µM	> 100 µM		> 100 µM	> 100 µM	> 100 µM	> 100	> 100 µM	> 100 µM										
CC1=C(C(=O)Nc2ccccc2C)C(/C=C/c2ccccc2)C(C(=O)Nc2ccccc2C)=C(C)N1	> 100 µM		> 100 µM	> 100 µM	> 100 µM	> 100 µM	> 100 µM	> 100	> 100 µM	> 100 µM										
CNC(SC)=C1C(=O)OC(C)(C)OC1=O		> 100 µM	> 100 µM	> 100 µM	> 100 µM	> 100 µM	> 100 µM	> 100	> 100 µM	> 100 µM										
COc1cc2cnc3c4ccccc4ccc3c2cc1OC		> 100 µM	> 100 µM		> 100 µM	> 100 µM	> 100 µM	> 100	> 100 µM											
CCCCCCCCCCCCCC(=O)OCC1OC(=O)CC1O (centres undefined)	> 100 µM	> 100 µM		> 100 µM	> 100 µM	> 100 µM	47.9 µM	> 100	> 100 µM	> 100 µM										
OC(CN1CC1)C(O)CN1CC1 (centres undefined)			> 50 µg/mL	> 50 µg/mL	> 50 µg/mL	> 50 µg/mL	> 50 µg/mL		> 50 µg/mL	> 50 µg/mL	> 50 µg/mL	> 50 µg/mL	> 50 µg/mL	> 50 µg/mL	> 50 µg/mL	> 50 µg/mL	> 50 µg/mL			
COc1ccc(Nc2nc3ccccc3nc2-c2cccs2)cc1	> 100 µM		> 100 µM	> 100 µM	> 100 µM	> 100 µM	> 100 µM	> 100	> 100 µM	> 100 µM										
Cn1c2ccccc2c2c(=O)c3ccccc3[nH]c21	> 100 µM	91.7 µM	> 100 µM	> 100 µM	> 100 µM	> 100 µM		> 100	> 100 µM	> 100 µM	44.2 µM	> 100000 nM	54000 nM	43.9 µM	64.3 µM		> 100000 nM	34000	29600	55.8
O=C1c2cccnc2-c2nc(-c3ccncc3)cc3c2c1nc1ccccc13	13.6 µM	64.8 µM		66.7 µM	47.4 µM	28.8 µM	31.6 µM	72.6	> 100 µM	43.6 µM	16.1 µM		15600 nM	19.3 µM	4.67 µM	17800 nM	> 100000 nM	2950	14600	30
CCOC(=O)C(=O)Nc1ccccc1C(F)(F)F	> 100 µM	> 100 µM		> 100 µM	> 100 µM	> 100 µM	> 100 µM	> 100	> 100 µM	> 100 µM										
C[C@H]1[C@H](C)CC[C@]2(C(=O)NCCNCCN)CC[C@]3(C)C(=CC[C@@H]4[C@@]5(C)CCC(=O)C(C)(C)[C@@H]5CC[C@]43C)[C@H]12	3.05 µM				3.11 µM	3.17 µM	3.41 µM		4.29 µM	3.13 µM	1.71 µM			1.67 µM	1.71 µM	1790 nM	1980 nM	1680		
CCCCCCCCCCCCCCCCCCNC(=O)[C@H]1CSC(c2cccs2)N1 (some centres undefined)	7.85 µM	2.41 µM	> 50 µM	1.72 µM	> 50 µM		1.66 µM	> 50	1.79 µM	2.02 µM	0.834 µM	3590 nM	973 nM	3.6 µM		868 nM	957 nM	1710	985	> 50
O=C1C=C(O)c2[nH]c(=O)ccc2C1=O	> 100 µM	> 100 µM	> 100 µM	> 100 µM	> 100 µM	> 100 µM	> 100 µM	> 100		> 100 µM										
Cc1ccc(S(=O)(=O)N/N=C(\c2nc3ccc([N+](=O)[O-])cc3[nH]c2=O)C(O)c2ccccc2Cl)cc1 (centres undefined)	> 100 µM	> 100 µM	82.6 µM		> 100 µM	> 100 µM	> 100 µM	> 100	> 100 µM	> 100 µM										
C[n+]1c2ccccc2cc2c(CNC(CCCN=C(N)N)C(=O)O)cccc21 (centres undefined)	2.66 µM and 2.91 µM	0.679 µM and 1.56 µM	2.78 µM and 0.342 µM	1.34 µM and 4.78 µM		19.1 µM	15.1 µM	0.686	7.25 µM	1.92 µM		157 nM	2220 nM		4.09 µM	2860 nM	957 nM		327	
Cn1cc(-c2csc(-c3cn(C)c4ccccc34)n2)c2cnccc21	3.2 µM	4.06 µM	3.84 µM	3.28 µM	3.28 µM	3.24 µM	2.96 µM		3.7 µM			2000 nM	1700 nM	1.76 µM	1.61 µM	1510 nM	2000 nM	1750	1760	
